Legend:
[1] = J. Pharm. Pharmacol. 1994, 46: 714-717; cited from earlier work
[2] = system: cutis of the back of female hairless mice; experiment: Cutis irritativeness, histology of back skin of hairless mice (Example 2); assay type: in vivo; conditions: 16 hours, light microscopy
Description: There was stuck 150 mg of TV-β-CyD, in the shape of a circle with a diameter of […], on the back of female hairless mice at the age of around 7 weeks (weight: […]), and 16 hours later, the cutis was extirpated. The extirpated cutis was fixed with 20% neutrally-buffered formalin solution and embedded in paraffin according to a usual manner, and tissue sections were prepared using a microtome. These sections were double stained with haematoxylin and Eosine, and observed by a light microscope. Untreated cutis was used as control. Moreover, a commercially available adhesive tape for patch test was applied on the same mice under the same condition, and, thereafter, the cutis tissue of the applied portion was extirpated for comparison.

[3] = Detaching force of films, probe tack tester (Example 1); assay type: physicochemical; conditions: films on polyethylene terephthalate; compared with HPC, HPMC and PHEMA; probe tack tester (FIG. 1)
Description: Pervaleryl-β-cyclodextrin (TV-β-CyD)-containing absolute ethanol solution (concentration: 150 mg/ml) was added dropwise onto a backing membrane (polyethylene terephthalate film) using a microsyringe, and allowed to stand at 25° C. for 24 hours to evaporate ethanol, whereby films of TV-β-CyD having adhesion were obtained.
The detaching force on the films of TV-β-CyD and on the films derived from various hydrophilic macromolecules (hydroxypropylcellulose (HPC), hydroxypropyl methylcellulose (HPMC) and polyhydroxyethyl methacrylate (PHEMA)) was measured using a probe tack tester (produced by Rigaku Kogyo Co.). The films of hydrophilic macromolecules were prepared as described with respect to TV-β-CyD.

Row | SMILES | drug release rate, compared with other acylated β-CyDs [1] | peeling of corneum ([2]; 150 mg, compared with commercially available adhesive tape for patch test) | abnormality such as inflammatory cellular infiltration ([2]; other sites (control)) | adhesion (detaching force), in comparison with hydrophilic macromolecules [3]
1 | CCCC(=O)OC[C@H]1O[C@@H]2O[C@H]3[C@H](OC(=O)CCC)[C@@H](OC(=O)CCC)[C@@H](O[C@H]4[C@H](OC(=O)CCC)[C@@H](OC(=O)CCC)[C@@H](O[C@H]5[C@H](OC(=O)CCC)[C@@H](OC(=O)CCC)[C@@H](O[C@H]6[C@H](OC(=O)CCC)[C@@H](OC(=O)CCC)[C@@H](O[C@H]7[C@H](OC(=O)CCC)[C@@H](OC(=O)CCC)[C@@H](O[C@H]8[C@H](OC(=O)CCC)[C@@H](OC(=O)CCC)[C@@H](O[C@H]1[C@H](OC(=O)CCC)[C@H]2OC(=O)CCC)O[C@@H]8COC(=O)CCC)O[C@@H]7COC(=O)CCC)O[C@@H]6COC(=O)CCC)O[C@@H]5COC(=O)CCC)O[C@@H]4COC(=O)CCC)O[C@@H]3COC(=O)CCC [TB-β-CyD, perbutanoyl-β-cyclodextrin] | remarkably retards the drug release rate | – | – | –
2 | CCCCC(=O)OC[C@H]1O[C@@H]2O[C@H]3[C@H](OC(=O)CCCC)[C@@H](OC(=O)CCCC)[C@@H](O[C@H]4[C@H](OC(=O)CCCC)[C@@H](OC(=O)CCCC)[C@@H](O[C@H]5[C@H](OC(=O)CCCC)[C@@H](OC(=O)CCCC)[C@@H](O[C@H]6[C@H](OC(=O)CCCC)[C@@H](OC(=O)CCCC)[C@@H](O[C@H]7[C@H](OC(=O)CCCC)[C@@H](OC(=O)CCCC)[C@@H](O[C@H]8[C@H](OC(=O)CCCC)[C@@H](OC(=O)CCCC)[C@@H](O[C@H]1[C@H](OC(=O)CCCC)[C@H]2OC(=O)CCCC)O[C@@H]8COC(=O)CCCC)O[C@@H]7COC(=O)CCCC)O[C@@H]6COC(=O)CCCC)O[C@@H]5COC(=O)CCCC)O[C@@H]4COC(=O)CCCC)O[C@@H]3COC(=O)CCCC [TV-β-CyD, Pervaleryl-β-cyclodextrin] | – | peeling of corneum in the same degree as in the case of the commercially available adhesive tape | no abnormality such as inflammatory cellular infiltration | strongest in adhesion

Source: US5904929A, “Acylated cyclodextrin-containing pharmaceutical composition” (Janssen Pharmaceutica, N.V., priority 1997, dated 1999)
